Where two headings read alike, the source gives them in different places.
Tested on: washed human platelets
Assay: Inhibition of ADP-induced platelet aggregation in washed human platelets
Type: cell-based
Conditions: for IC50: agonist challenge (ADP) typically 1-5 μM, average of two experiments or more; for activity as antagonists of P2Y12-mediated platelet aggregation (in words): comment on Table 1 data
Protocol: Isolation of Platelets: Human blood is obtained from informed healthy adult volunteers. Blood is collected into one-sixth volume of acid/citrate/dextrose (ACD) buffer (85 mM sodium citrate, 65 mM citric acid, and 100 mM glucose). Collected blood is placed in a water bath at 37° C. for 30 minutes. Blood is then centrifuged at 275×g for 16 minutes at room temperature and the platelet-rich plasma is removed and centrifuged at 2200×g for 13 minutes at room temperature. The platelet pellet is resuspended in 40 mL of HEPES-buffered Tyrode's solution (137 mM NaCl, 2.7 mM KCl, 1 mM MgCl2, 2 mM CaCl2, 12 mM NaHCO3, 0.36 mM NaH2PO4, 5.5 mM glucose, 5 mM HEPES pH 7.4, 0.35% bovine serum albumin or 0.35% human serum albumin) containing 10 U/mL heparin and 5 μM (final concentration) prostaglandin 12 (PGI2). The platelet suspension is incubated in a 37° C. water bath for 10 minutes and then 5 μM (final conc.) PGI2 is added just before centrifugation at 1900×g for 8 minutes. The resulting pellet is resuspended in 40 mL of HEPES-buffered Tyrode's solution containing 5 μM (final concentration) PGI2 and then is incubated for 10 minutes in a 37° C. water bath. A small aliquot (500 μL) of the platelet suspension is removed for platelet counting. Prior to centrifugation 5 μM (final concentration) PGI2 is added to the suspension and then the suspension is centrifuged at 1900×g for 8 minutes. The pellet is resuspended at a density of 5×10^8 cells/mL in HEPES-buffered Tyrode's solution containing 0.05 U/mL apyrase.
Aggregation Studies: ADP-induced platelet aggregation is determined by measuring the transmission of light through a 0.5 ml suspension of stirred (1000 rpm) washed platelets in a lumi-aggregometer at 37° C. (Chrono-Log Corp. Havertown, Pa.). The baseline of the instrument is set using 0.5 ml of Hepes-buffered Tyrode's solution. Prior to aggregation measurements, the platelet suspension is supplemented with 1 mg/ml fibrinogen. Platelet aggregation is initiated by the addition of indicated concentrations of ADP or other agonists, and the light transmission is continuously recorded for at least 8 min. When inhibitors of platelet aggregation are tested, platelets are incubated for 2 min in the presence of indicated concentrations of inhibitor before addition of ADP or other agonists, and the response is recorded for at least 8 min. The potency of agonists and inhibitors of platelet aggregation is calculated from both the rate of aggregation and the maximal extent of aggregation obtained for each determination by fitting the data to a four-parameter logistic equation using the GraphPad software package (GraphPad Corp. San Diego, Calif.).
IC50 values represent the concentration of antagonist necessary to inhibit by 50% the aggregation elicited by a given concentration of ADP.
Platelet IC50 data were determined using washed human platelets, according to the protocol of example 14. Agonist challenge (ADP) typically in the range of 1-5 μM.

[1] = Homo sapiens, Platelet, read-out: PLATELET DATA IC50 (uM) Washed Platelets, washed human platelets
[2] = read-out: PLATELET DATA IC50 (uM) Washed Platelets, washed human platelets

Row | Compound | IC50 [1] | activity as antagonists of P2Y12-mediated platelet aggregation (in words) (washed human platelets) | IC50 [2]
1 | O=C(Nc1ccccc1)Nc1ncnc2c1ncn2C1OC(COc2ncccc2C(=O)O)C2OC(c3ccccc3C(F)(F)F)OC21 (stereo not drawn) [Compound 14, 2-[6-[6-(3-Phenyl-ureido)-purin-9-yl]-2-(2-trifluoromethyl-phenyl)-tetrahydro-furo[3,4-d][1,3]dioxol-4-ylmethoxy]-nicotinic acid] | 8.1 µM | show P2Y12 antagonist activity | –
2 | 2-{6-[6-(3-Ethyl-ureido)-purin-9-yl]-2-phenylethynyl-tetrahydro-furo[3,4-d][1,3]dioxol-4-ylmethoxy}-nicotinic acid [Compound 26] | – | show P2Y12 antagonist activity | 1 µM
3 | O=C(Nc1ccccc1)Nc1ncnc2c1ncn2C1OC(COc2ncccc2C(=O)O)C2OC(c3ccc4ccccc4c3)OC21 (stereo not drawn) [Compound 19, 2-{2-Naphthalen-2-yl-6-[6-(3-phenyl-ureido)-purin-9-yl]-tetrahydro-furo[3,4-d][1,3]dioxol-4-ylmethoxy}-nicotinic acid] | 18 µM | show P2Y12 antagonist activity | –
4 | CCNC(=O)Nc1ncnc2c1ncn2C1OC(COCc2ccccc2C(=O)O)C2O[C@H](c3ccccc3)OC21 (stereo partly drawn) [Compound 107, 2-{6-[6-(3-Ethyl-ureido)-purin-9-yl]-2-trans-phenyl-tetrahydro-furo[3,4-d][1,3]dioxol-4-ylmethoxymethyl}-benzoic acid] | < 0.1 µM | – | 0.057 µM
5 | CCNC(=O)Nc1ncnc2c1ncn2C1OC(CCC(=O)O)C2OC(C=Cc3ccccc3)OC21 (stereo not drawn) [Compound 183, 3-{6-[6-(3-Ethyl-ureido)-purin-9-yl]-2-styryl-tetrahydro-furo[3,4-d][1,3]dioxol-4-yl}-propionic acid] | 0.376 µM | P2Y12 antagonist activity can be obtained | –
6 | CCNC(=O)Nc1ncnc2c1ncn2C1CC(COC(=S)NCC(=O)O)C2O[C@H](/C=C/c3ccccc3)OC21 (stereo partly drawn) [Compound 233, {6-[6-(3-Ethyl-ureido)-purin-9-yl]-2-trans-styryl-tetrahydro-cyclopenta[1,3]dioxol-4-ylmethoxythiocarbonylamino}-acetic acid] | 0.503 µM | show P2Y12 antagonist activity | –
7 | CC1(C)OC2C(COc3ccc(C(=O)O)cc3C(=O)O)OC(n3cnc4c(NC(=O)Nc5ccccc5)ncnc43)C2O1 (stereo not drawn) [Compound 1, 4-{2,2-Dimethyl-6-[6-(3-phenyl-ureido)-purin-9-yl]-tetrahydro-furo[3,4-d][1,3]dioxol-4-ylmethoxy}-isophthalic acid] | 6.6 µM | show P2Y12 antagonist activity | –
8 | CCNC(=O)Nc1ncnc2c1ncn2C1OC(C(=O)O)C2O[C@H](/C=C/c3ccccc3)OC21 (stereo partly drawn) [Compound 210, 6-[6-(3-Ethyl-ureido)-purin-9-yl]-2-trans-styryl-tetrahydro-furo[3,4-d][1,3]dioxole-4-carboxylic acid] | 0.163 µM | P2Y12 antagonist activity can be obtained | –
9 | O=C(Nc1ncnc2c1ncn2C1OC(C(=O)N2CCCC2C(=O)O)C2OC(Cc3ccccc3)OC21)NC1CCCC1 (stereo not drawn) [Compound 36, 1-{2-Benzyl-6-[6-(3-cyclopentyl-ureido)-purin-9-yl]-tetrahydro-furo[3,4-d][1,3]dioxole-4-carbonyl}-pyrrolidine-2-carboxylic acid] | 0.75 µM | show P2Y12 antagonist activity | –
10 | CCNC(=O)Nc1ncnc2c1ncn2C1OC(CCc2c(F)cccc2C(=O)O)C2O[C@H](c3ccccc3)OC21 (stereo partly drawn) [Compound 158, 2-(2-{6-[6-(3-Ethyl-ureido)-purin-9-yl]-2-trans-phenyl-tetrahydro-furo[3,4-d][1,3]dioxol-4-yl}-ethyl)-3-fluoro-benzoic acid] | 8 µM | active molecules | –
11 | CCNC(=O)Nc1ncnc2c1ncn2C1OC(COCc2ccccc2C(=O)O)C2O[C@@H](c3ccccc3)OC21 (stereo partly drawn) [Compound 108, 2-{6-[6-(3-Ethyl-ureido)-purin-9-yl]-2-cis-phenyl-tetrahydro-furo[3,4-d][1,3]dioxol-4-ylmethoxymethyl}-benzoic acid] | < 0.1 µM | – | 0.098 µM
12 | CCNC(=O)Nc1ncnc2c1ncn2C1OC(C(=O)N2CCC[C@@H]2C(=O)O)C2O[C@H](/C=C/c3ccccc3)OC21 (stereo partly drawn) [Compound 70, 1-{6-[6-(3-Ethyl-ureido)-purin-9-yl]-2-trans-styryl-tetrahydro-furo[3,4-d][1,3]dioxole-4-carbonyl}-D-pyrrolidine-2-carboxylic acid] | 0.397 µM | improved potency | –
13 | CCNC(=O)Nc1ncnc2c1ncn2C1OC(C(=O)N2CCC[C@H]2C(=O)O)C2O[C@H](c3ccccc3)OC21 (stereo partly drawn) [Compound 65, 1-{6-[6-(3-Ethyl-ureido)-purin-9-yl]-2-trans-phenyl-tetrahydro-furo[3,4-d][1,3]dioxole-4-carbonyl}-L-pyrrolidine-2-carboxylic acid] | 0.728 µM | improved potency | –
14 | CCNC(=O)Nc1ncnc2c1ncn2C1CC(CNC(=O)c2ccccc2C(=O)O)C2OC(C=Cc3ccccc3)OC21 (stereo not drawn) [Compound 239, N-{6-[6-(3-Ethyl-ureido)-purin-9-yl]-2-trans-styryl-tetrahydro-cyclopenta[1,3]dioxol-4-ylmethyl}-phthalamic acid] | – | show potent activity | 0.086 µM
15 | CCCCCCNC(=O)Nc1ncnc2c1ncn2C1OC(COc2ncccc2C(=O)O)C2OC(c3ccccc3)OC21 (stereo not drawn) [Compound 24, 2-{6-[6-(3-Hexyl-ureido)-purin-9-yl]-2-phenyl-tetrahydro-furo[3,4-d][1,3]dioxol-4-ylmethoxy}-nicotinic acid] | 2.15 µM | show P2Y12 antagonist activity | –
16 | CCNC(=O)Nc1ncnc2c1ncn2C1CC(COCC(=O)O)C2OC(C=Cc3ccccc3)OC21 (stereo not drawn) [Compound 189, {6-[6-(3-Ethyl-ureido)-purin-9-yl]-2-trans-styryl-tetrahydro-cyclopenta[1,3]dioxol-4-ylmethoxy}-acetic acid] | – | P2Y12 antagonist activity can be obtained | 0.243 µM
17 | CCNC(=O)Nc1ncnc2c1ncn2C1OC(CNCC(=O)O)C2O[C@H](/C=C/c3ccccc3)OC21 (stereo partly drawn) [Compound 191, ({6-[6-(3-Ethyl-ureido)-purin-9-yl]-2-trans-styryl-tetrahydro-furo[3,4-d][1,3]dioxol-4-ylmethyl}-amino)-acetic acid] | 0.512 µM | P2Y12 antagonist activity can be obtained | –
18 | CCNC(=O)Nc1ncnc2c1ncn2C1OC(C(=O)N2CCC[C@H]2C(=O)O)C2OC(c3ccccc3)OC21 (stereo in doubt) [Compound 69, 1-{6-[6-(3-Ethyl-ureido)-purin-9-yl]-2-trans-phenyl-tetrahydro-furo[3,4-d][1,3]dioxole-4-carbonyl}-L-pyrrolidine-2-carboxylic acid] | – | improved potency | 0.441 µM
19 | CCNC(=O)Nc1ncnc2c1ncn2C1CC(COCc2ncccc2C(=O)O)C2OC(/C=C/c3ccccc3)OC21 (stereo not drawn) [Compound 130, 2-{6-[6-(3-Ethyl-ureido)-purin-9-yl]-2-trans-styryl-tetrahydro-cyclopenta[1,3]dioxol-4-ylmethoxymethyl}-nicotinic acid] | – | – | 0.057 µM
20 | CS(=O)(=O)NC(=O)NCC1OC(n2cnc3c(NC(=O)Nc4ccccc4)ncnc32)C2OC(Cc3ccccc3)OC12 (stereo not drawn) [Compound 37, 1-(9-{2-Benzyl-6-[(3-methylsulfonyl-ureido)-methyl]-tetrahydro-furo[3,4-d][1,3]dioxol-4-yl}-9H-purin-6-yl)-3-phenyl-urea] | 15 µM | show P2Y12 antagonist activity | –

From patent publication US7749981B2, “Drug-eluting stents coated with non-nucleotide P2Y12 receptor antagonist compound” (Inspire Pharmaceuticals, Inc., priority 2005, dated 2010)
